Measurements published in ChEMBL document CHEMBL3860109, “Benzenesulfonamides Incorporating Flexible Triazole Moieties Are Highly Effective Carbonic Anhydrase Inhibitors: Synthesis and Kinetic, Crystallographic, Computational, and Intraocular Pressure Lowering Investigations” (J Med Chem, 2016).
Active and inactive are the calls of the source. The calls are words filed in the database; no cut-off is given here.

Key:
Carbonic anhydrase 9 = Carbonic anhydrase 9 (Homo sapiens, UniProt Q16790)
Description: Inhibition of human carbonic anhydrase 9 pre-incubated for 15 mins by stopped flow carbon dioxide hydrase assay

Carbonic anhydrase 1 = Carbonic anhydrase 1 (Homo sapiens, UniProt P00915); experiment: Inhibition of human carbonic anhydrase 1 pre-incubated for 15 mins by stopped flow carbon dioxide hydrase assay
Chain of Carbonic anhydrase 1 (P00915 whole entry): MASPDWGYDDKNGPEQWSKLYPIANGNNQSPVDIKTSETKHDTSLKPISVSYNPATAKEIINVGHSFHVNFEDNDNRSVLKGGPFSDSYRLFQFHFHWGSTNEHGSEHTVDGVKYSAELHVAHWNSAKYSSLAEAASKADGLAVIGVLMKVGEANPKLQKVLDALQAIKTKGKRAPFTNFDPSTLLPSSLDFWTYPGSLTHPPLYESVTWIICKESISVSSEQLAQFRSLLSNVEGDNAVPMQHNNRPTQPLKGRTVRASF

Oryctolagus cuniculus [1] = organism: Oryctolagus cuniculus; experiment: Reduction in intraocular pressure in New Zealand albino rabbit model of hypertonic saline-induced ocular hypertension at 1 to 2% instilled immediately after hypertonic saline injection measured after 2 hrs post dose; format: functional, Eye
Carbonic anhydrase 2 = Carbonic anhydrase 2 (Homo sapiens, UniProt P00918); experiment: Inhibition of human carbonic anhydrase 2 pre-incubated for 15 mins by stopped flow carbon dioxide hydrase assay
Oryctolagus cuniculus [2] = organism: Oryctolagus cuniculus; experiment: Reduction in intraocular pressure in New Zealand albino rabbit model of hypertonic saline-induced ocular hypertension at 1 to 2% instilled immediately after hypertonic saline injection measured after 4 hrs post dose; format: functional; details: Eye

Structure (SMILES)	Ki (Carbonic anhydrase 9) [nM]	also measured
COc1ccc(OCc2cn(-c3ccc(S(N)(=O)=O)cc3)nn2)cc1	14.3	–
NS(=O)(=O)c1ccc(-n2cc(COc3cccnc3)nn2)cc1	17.2	–
NS(=O)(=O)c1ccc(OCc2cn(-c3ccc(C(F)(F)F)cc3)nn2)cc1	23.6	Ki (Carbonic anhydrase 1): > 10000 nM
NS(=O)(=O)c1ccc(-n2cc(CNc3ccccc3)nn2)cc1	2.2	Activity (Oryctolagus cuniculus [1]): 2 mmHg
NS(=O)(=O)c1ccc(OCc2cn(-c3ccccc3)nn2)cc1	2.6	–
NS(=O)(=O)c1ccc(-n2cc(CSc3ccccc3)nn2)cc1	2.4	–
COc1cccc(-n2cc(COc3ccc(S(N)(=O)=O)cc3)nn2)c1	20.5	–
NS(=O)(=O)c1ccc(-n2cc(CN(Cc3cn(-c4ccc(S(N)(=O)=O)cc4)nn3)c3ccccc3)nn2)cc1	12.1	Ki (Carbonic anhydrase 1): > 10000 nM; Ki (Carbonic anhydrase 2): > 10000 nM
NS(=O)(=O)c1ccc(OCc2cn(-c3ccc(O)cc3)nn2)cc1	18.7	–
NS(=O)(=O)c1ccc(OCc2cn(-c3ccc(F)cc3)nn2)cc1	16.2	–
NS(=O)(=O)c1ccc(-n2cc(COc3ccccc3)nn2)cc1	2.1	Activity (Oryctolagus cuniculus [2]): Active; Activity (Oryctolagus cuniculus [1]): 3 mmHg
NS(=O)(=O)c1ccc(-n2cc(-c3ccccc3)nn2)cc1	–	Ki (Carbonic anhydrase 1): 342 nM
Cc1cccc(OCc2cn(-c3ccc(S(N)(=O)=O)cc3)nn2)c1	2.3	–
COc1cccc(OCc2cn(-c3ccc(S(N)(=O)=O)cc3)nn2)c1	9.3	–
